Test results taken from the SangsterLogP compilation.

Experiment: method code SF, from DOI: 10.1016/j.ejps.2012.10.019, PMID: 23131797
Conditions: pH 2.0
Molecule `Cc1cccc(C)c1NC(=O)Cn1cc(C(=O)C2CC2)c2ccccc21` has a logD of 3.47.
With `Cc1ccc(OCCC(=O)N2CCN(S(=O)(=O)c3cccs3)CC2)cc1` the logD was 2.98.
Molecule `Cc1c(NC(=O)CC(c2ccccc2)c2ccccc2)cccc1-n1cnnn1` has a logD of 3.2.

Same assay, conditions: pH 5.0
Work on `O=C(CSc1nnc(-c2cccs2)o1)NCCN1C(=O)CSC1=O` yielded a logD of 2.31.
Work on `CCCN(CC1CC1)C(=S)Nc1cc([N+](=O)[O-])ccc1Cl` yielded a logD of 4.1.
`COc1ccc2c(C)c(C)c(=O)oc2c1C` gave a logD of 3.45.
Work on `CCOC(=O)c1cnn(C(=O)c2cnn(-c3ccc([N+](=O)[O-])cc3)c2C(F)(F)F)c1N` yielded a logD of 3.53.
In the case of `O=C(COC(=O)c1cccc(S(=O)(=O)N2CCc3ccccc32)c1)Nc1ccc(F)c(F)c1F`, the logD is reported as 5.31.
In the case of `COc1ccc(CNC(=O)C2CCCC2)cc1`, the logD is reported as 2.6.
In the case of `CCCCC(=O)NC1C2CC3CC(C2)CC1C3` (configuration not stated), the logD is reported as 3.8.
`CC(=O)c1cc2ccccc2o1` showed a logD of 2.15.
`NC(=O)C1CCN(C(=O)c2ccc3c(=O)n(Cc4ccco4)c(SCC(=O)c4ccccc4)nc3c2)CC1` showed a logD of 5.31.
`Cc1ccc(NC(=O)CSc2nnc(Cc3ccccc3)o2)cc1Cl` gave a logD of 4.85.
Molecule `CCCC(=O)OCC(=O)Nc1ccc(F)cc1Cl` has a logD of 3.02.
In the case of `CCC(CC)NC(=O)c1ccc(Cl)c(S(=O)(=O)N2CCCC2)c1`, the logD is reported as 3.6.
Molecule `COc1ccc(C(=O)Nc2cccc(F)c2)cc1S(=O)(=O)N1CCOCC1` has a logD of 3.64.
`O=C(COC(=O)c1cccc(N2C(=O)c3ccccc3C2=O)c1)c1ccc(F)cc1` gave a logD of 4.68.
In the case of `O=C(COc1ccc(C(F)(F)F)cc1[N+](=O)[O-])Nc1ccccc1Br`, the logD is reported as 5.16.
For `COC(=O)c1ccc(-n2c(C)cc(C(=O)COc3cccc(-n4cnnn4)c3)c2C)cc1`, the logD was 4.77.
In the case of `Clc1ccc(CSc2ncccn2)cc1Cl`, the logD is reported as 4.33.
`COC(=O)/C=C/CN1C(=O)c2ccccc2C1=O` showed a logD of 2.46.
`O=C(OCC(=O)N1CCC(Cc2ccccc2)CC1)C1CCCCC1` showed a logD of 4.98.
Molecule `COc1ccc(N2C3=C(C(=O)CC(C)(C)C3)C(c3ccc4c(c3)OCO4)C3=C2CC(C)(C)CC3=O)cc1` has a logD of 5.72.
In the case of `CN(C(=O)c1c(F)c(F)c(F)c(F)c1F)C(C)(C)C`, the logD is reported as 3.45.
With `CCOc1ccc(-n2c(SCC(=O)NC3CC3)nc3sc4c(c3c2=O)CCC4)cc1` the logD was 4.64.
`CC1=CC(C)C(CO)(CO)C(C)C1` (configuration not stated) gave a logD of 2.93.
Molecule `COc1nc(Cl)nc(Nc2ccccc2)n1` has a logD of 2.89.
Work on `O=C(Nc1ccc(S(=O)(=O)c2ccc(NC(=O)c3cccs3)cc2)cc1)c1cccs1` yielded a logD of 4.46.
In the case of `CCOc1cc(C#N)c(NC(=O)c2cc(S(=O)(=O)N3CCOCC3)c(Cl)cc2Cl)cc1OCC`, the logD is reported as 4.31.
Work on `CC(Sc1nc2ccccc2c(=O)n1-c1ccc(F)cc1)C(=O)NCc1ccc2c(c1)OCO2` (configuration not stated) yielded a logD of 4.63.
`O=C(NCCc1ccccc1)c1ccc(Cl)cc1` showed a logD of 3.71.
Molecule `CCCCOc1ccc(C(=O)Oc2ccc3c(c2)OCO3)cc1OC` has a logD of 4.77.
Molecule `c1ccc2c(c1)OCCOCCOCCO2` has a logD of 1.81.
With `CC(C)NC(=O)COC(=O)c1ccc(S(=O)(=O)N2CCCCCC2)cc1` the logD was 3.78.
With `COc1ccc(C)cc1-n1nnnc1SCC(=O)Nc1cc(C(N)=O)cc(C(N)=O)c1` the logD was 4.15.
In the case of `O=C(CSCc1ccccc1)Nc1ccc(-c2ccc([N+](=O)[O-])cc2)cc1`, the logD is reported as 5.38.
`O=C(Nc1ccccc1C(F)(F)F)NC1CCCCC1` showed a logD of 4.
`O=C1c2ccccc2C(=O)N1c1ccccc1S(=O)C(F)(F)F` (configuration not stated) showed a logD of 3.3.
With `O=C1c2ccccc2C(=O)N1c1ccccc1C(F)(F)F` the logD was 3.55.
Molecule `N#Cc1c(SCC(=O)OCc2ccccc2)nsc1SCC(=O)OCc1ccccc1` has a logD of 5.6.
With `Cc1ccc(C)c(S(=O)(=O)N(C)c2ccc(OC(=O)c3ccc4c(c3)OCO4)cc2)c1` the logD was 5.87.
For `N#CCSc1nc2ccccc2c(=O)n1-c1ccc(OC(F)F)cc1`, the logD was 4.17.
Work on `COc1cc(C(=O)Nc2ccccc2C(C)(C)C)cc(OC)c1OC` yielded a logD of 3.61.
In the case of `Cc1ccccc1-c1noc(CCl)n1`, the logD is reported as 3.3.
With `CC1(C)OC(=O)C(=Cc2ccc([N+](=O)[O-])s2)C(=O)O1` the logD was 3.04.
With `O=C(Cn1c(=O)n(-c2ccccc2)c(=O)n1CC(=O)N1CCCCC1)N1CCCCC1` the logD was 2.78.
In the case of `CCc1ccc(-n2nnnc2SCC(=O)Nc2ccc(C(C)=O)cc2)cc1`, the logD is reported as 4.69.
With `O=C(COc1ccc2ccccc2c1)N1CCN(S(=O)(=O)c2ccc3c(c2)OCCO3)CC1` the logD was 4.47.
With `COC(=O)c1ccc(Br)c(S(=O)(=O)N2CCCCC2)c1` the logD was 3.66.
With `CCCCCC(=O)NC1(CCC)CCCC1` the logD was 4.28.
Molecule `Cc1cc2nsnc2c([N+](=O)[O-])c1C` has a logD of 2.64.
In the case of `CC12CCCC(C(N)=O)(CCC1)C2`, the logD is reported as 2.73.
`Cc1ccc(S(=O)(=O)N(CCO)Cc2ccccc2)cc1` gave a logD of 3.69.
Work on `O=C(OCC(=O)N(C1CCCCC1)C1CCCCC1)c1ccc(Cl)nc1` yielded a logD of 4.99.
Work on `COc1ccc(OC)c(NC(=O)c2ccc(NC3=C(Cl)C(=O)N(C4CCCCC4)C3=O)cc2)c1` yielded a logD of 5.96.
In the case of `O=P(OCC(F)(F)F)(OCC(F)(F)F)N1CCOCC1`, the logD is reported as 2.69.
Molecule `CCOc1ccc(NC(=O)CSc2nc3ccsc3c(=O)n2-c2ccccc2)cc1` has a logD of 4.33.
`O=C(NC1CC1)c1ccc(COc2c(F)c(F)cc(F)c2F)o1` gave a logD of 3.54.
`CCCn1c(=O)c(Br)cn(-c2ccccc2C)c1=O` showed a logD of 2.82.
Molecule `COCc1cc(OC(=O)N(C)C)nc(SCC(=O)C(C)(C)C)n1` has a logD of 3.33.
In the case of `C#CCOc1c(I)cc(C=C2C(=O)N(C)C(=S)N(C)C2=O)cc1OCC`, the logD is reported as 3.72.
Molecule `CN(C1=NS(=O)(=O)c2ccccc21)c1ccc(OC(=O)c2ccccc2)cc1` has a logD of 4.26.
For `Cc1c(C(=O)Nc2ccc(S(=O)(=O)N3CCCCCC3)cc2)oc2ccc(F)cc12`, the logD was 5.68.

Same assay, conditions: pH 6.5
`N#CCOC(=O)c1ccccc1SCC(=O)N1CCCC1` showed a logD of 2.57.
With `COc1ccccc1N1C(=O)c2ccc(C(=O)Nc3ccc(-c4nnc(-c5ccccc5)o4)cc3)cc2C1=O` the logD was 6.17.
In the case of `CS(=O)(=O)N(CC(=O)Nc1c(F)cccc1F)c1cc(Cl)c(Cl)cc1Cl`, the logD is reported as 4.34.
For `CCN(CC)C(=O)c1sc(NC(=O)c2cc(OC)cc(OC)c2)c(C(=O)OC)c1C`, the logD was 5.47.
Molecule `C=CCNC(=O)CSc1nc(C(F)F)cc(-c2cn(C)nc2C)c1C#N` has a logD of 3.74.
`O=C(c1cccc([N+](=O)[O-])c1)N(Cc1ccccc1F)N1C(=O)c2ccccc2C1=O` showed a logD of 4.47.
In the case of `COC(=O)c1c(NC(NC(=O)c2cccnc2)(C(F)(F)F)C(F)(F)F)sc2c1CCCCC2`, the logD is reported as 5.75.
`COc1cc(C=O)ccc1OS(=O)(=O)c1ccc(F)c(F)c1` showed a logD of 3.68.

Same assay, conditions: pH 7.0
`NNc1c(F)c(F)nc(F)c1F` showed a logD of 0.86.

Same assay, conditions: pH 7.3
Work on `NC(=O)CSc1nc2c(c(=O)n1Cc1ccco1)C1(CCCCC1)Cc1ccccc1-2` yielded a logD of 5.45.
Work on `CCOC(=O)c1c(NC(=O)CSc2nnc(C)s2)sc2c1CCCCC2` yielded a logD of 5.03.
Molecule `Nn1c(COc2ccccc2)nnc1SC(F)F` has a logD of 1.85.
`Cc1ccnc(N(C(=O)c2cc3c(s2)CCCC3)C(=O)c2cc3c(s2)CCCC3)c1` showed a logD of 5.76.
In the case of `COc1ccccc1NC(=O)C1=C(C)Nc2nc(SCc3ccccc3F)nn2C1c1ccncc1` (configuration not stated), the logD is reported as 4.66.
`COc1cccc(OC)c1C(=O)Nc1ccc(N2CCN(C(=O)c3ccccc3C)CC2)cc1` gave a logD of 4.16.
Work on `Cc1nccn1S(=O)(=O)c1ccc(Cl)cc1` yielded a logD of 2.93.
For `COc1cccc(-c2ccc3c(N)c(C(=O)Nc4ccc(F)c(F)c4)sc3n2)c1`, the logD was 5.86.
Work on `COC(=O)c1sc(N)nc1C` yielded a logD of 1.48.
Molecule `C=CCn1c(SCc2ccccc2)nc2ccccc2c1=O` has a logD of 5.11.
`Cn1c(C(=O)N2CCC3(CC2)OCCO3)cc2c(=O)n3ccccc3nc21` gave a logD of 2.87.
Work on `COc1ccc(C2CC(=O)C3=C(C2)Nc2ccccc2N(C(=O)C(F)(F)F)C3c2cc(OC)c(OC)c(OC)c2)cc1` (configuration not stated) yielded a logD of 4.87.
For `O=C(CSc1ncnc2sc3c(c12)CCC3)Nc1ccc(F)cc1`, the logD was 4.69.
`Cc1cc(Br)ccc1NC(=O)CSc1nnc(N)s1` gave a logD of 2.69.
In the case of `O=C(Nc1cc2c(n(CCNc3ncc(C(F)(F)F)cc3Cl)c1=O)CCCC2=O)c1ccc(Cl)cc1`, the logD is reported as 5.83.
In the case of `C=CCn1c(SCC(=O)Nc2ccc(C)c(F)c2)nnc1-c1cccs1`, the logD is reported as 4.48.
With `COc1cccc(Cn2cc(N)cn2)c1` the logD was 1.55.

Same assay, conditions: pH 8.0
For `Cc1cc(SCC(=O)NCc2ccc3c(c2)OCO3)nc2ccccc12`, the logD was 4.15.

Same assay, conditions: pH 10.0
Work on `CC1CN(c2nc3ccccn3c(=O)c2C=C(C#N)C#N)CC(C)O1` (configuration not stated) yielded a logD of 3.24.
`CCOC(=O)C1=C(C)NC(C)=C(C(=O)OC)C1c1ccco1` (configuration not stated) showed a logD of 3.67.
Molecule `Cc1ccc(C)n1-c1ccc(-c2ccnc3ncnn23)cc1` has a logD of 3.5.
With `Cn1c(N)c(C(=O)COC(=O)C2CC2)c(=O)n(C)c1=O` the logD was 2.17.
`CCc1noc(-c2[nH]c3ccccc3c2C(=O)C(=O)N(C)C)c1C` showed a logD of 2.68.
Molecule `CCOC(=O)CC1=Nn2c(nnc2-c2cccs2)SC1` has a logD of 2.98.

Same assay, conditions: pH 10.5
Molecule `Cc1ccc(S(=O)(=O)N(C)c2ccc(OCC(=O)N3CCN(c4ncccn4)CC3)cc2)cc1` has a logD of 4.46.
Work on `COC(=O)COc1cc2occ(-c3csc(C)n3)c(=O)c2cc1C` yielded a logD of 3.9.
`COCCn1c(C)cc(C(=O)CSc2nnc3[nH]c4ccccc4n23)c1C` showed a logD of 3.45.
In the case of `Cc1nn(C)cc1-c1cc(C(F)(F)F)n2ncc(C(=O)N(C3CCCCC3)C3CCCCC3)c2n1`, the logD is reported as 5.81.
`COc1ccc(-c2nnc(SCC(=O)c3c(N)n(C)c(=O)n(C)c3=O)n2-c2cccc(C(F)(F)F)c2)cc1` gave a logD of 4.89.
Molecule `CCn1cc(C2C3=C(CC(C)(C)CC3=O)N(c3ccc(C)cc3)C3=C2C(=O)CC(C)(C)C3)c(C)n1` has a logD of 5.35.
Work on `CCOC(=O)c1sc(NCCNc2nc(C)c(C(=O)OCC)s2)nc1C` yielded a logD of 4.66.
In the case of `CC(C)(C)c1cc(Cc2ccccc2)n[nH]1`, the logD is reported as 4.35.
`Cc1cc(C)n(C2=NCCN2S(=O)(=O)c2cc(C(F)(F)F)cc(C(F)(F)F)c2)n1` gave a logD of 4.7.
With `CCN(CC)c1ccc(C=C2C(=O)c3ccccc3C2=O)c(OC)c1` the logD was 5.05.
`COc1ccc(S(=O)(=O)N2CCCCCC2)cc1C(=O)OCC(=O)c1c(N)n(C)c(=O)n(C)c1=O` showed a logD of 4.59.
Work on `O=C(CSc1nnc(-c2ccccc2)n1-c1ccccc1)N1CCN(C(=O)c2ccccc2)CC1` yielded a logD of 4.64.
With `C=C(C)CSc1nnc(-c2cccc(S(=O)(=O)N3CCOCC3)c2)n1C1CCCC1` the logD was 4.73.
`COc1cc(C2C(C#N)=C(N)Oc3cc(C)[nH]c(=O)c32)cc(OC)c1OC` (configuration not stated) gave a logD of 2.55.
With `CCOc1cc(-c2nnc(-c3ccco3)o2)cc(OCC)c1OCC` the logD was 3.96.
With `O=C(c1cc2ccccc2s1)N1CCCN(c2ccc(C(F)(F)F)cn2)CC1` the logD was 4.92.
